Results: article PMC11249953, “c-KIT inhibitors reduce pathology and improve behavior in the Tg(SwDI) model of Alzheimer’s disease” (Life Science Alliance, 2024)
Values joined by “and” are separate entries in the source; they are usually repeats but may differ in a detail not shown here. Equal entries are not always repeated.

Legend:
[1] = ref Fowler et al, 2020; cited from earlier work
mice = assay: Rotarod (source data sheets only, mouse line not given); type: in vivo; conditions: for Rotarod trial 1 / Rotarod trial 2: Day 1; for Rotarod trial 1 / Rotarod trial 2 / Rotarod trial 3 / Rotarod trial 4 / Rotarod trial 5 / Rotarod trial 6 / Rotarod D1 AVG / Rotarod D2 AVG / Rotarod D3 AVG / Rotarod Total AVG: individual mice, listed as 143; for Rotarod trial 3 / Rotarod trial 4: Day 2; for Rotarod trial 5 / Rotarod trial 6: Day 3

SMILES: Cc1cccc(-c2cc3nccc(Nc4ccccc4)c3s2)c1 [BK40143]
- brain penetrance [1]: brain penetrant
- Rotarod D1 AVG, group mean (mice; 2.5mg/kg): 20.1429 s
- Rotarod D2 AVG, group mean (mice; 2.5mg/kg): 81.5714 s
- Rotarod D3 AVG, group mean (mice; 2.5mg/kg): 111.786 s
- Rotarod Total AVG, group mean (mice; 2.5mg/kg): 71.1667 s
- Rotarod trial 1 (mice; 2.5mg/kg): 2 s and 8 s and 4 s and 23 s and 9 s and 22 s
- Rotarod trial 2 (mice; 2.5mg/kg): 5 s and 11 s and 17 s and 22 s and 130 s and 10 s
- Rotarod trial 3 (mice; 2.5mg/kg): 13 s and 135 s and 4 s and 46 s and 129 s and 117 s
- Rotarod trial 4 (mice; 2.5mg/kg): 29 s and 169 s and 6 s and 101 s and 155 s and 230 s and 4 s
- Rotarod trial 5 (mice; 2.5mg/kg): 15 s and 204 s and 111 s and 60 s and 154 s and 195 s and 10 s
- Rotarod trial 6 (mice; 2.5mg/kg): 60 s and 172 s and 53 s and 88 s and 157 s and 272 s and 14 s
- Rotarod D1 AVG (mice; 2.5mg/kg): 3.5 s and 9.5 s and 10.5 s and 12 s and 76.5 s and 13 s and 16 s
- Rotarod D2 AVG (mice; 2.5mg/kg): 21 s and 152 s and 5 s and 73.5 s and 142 s and 117 s and 60.5 s
- Rotarod D3 AVG (mice; 2.5mg/kg): 37.5 s and 188 s and 82 s and 74 s and 155.5 s and 233.5 s and 12 s
- Rotarod Total AVG (mice; 2.5mg/kg): 20.6667 s and 116.5 s and 32.5 s and 53.1667 s and 124.667 s and 121.167 s and 29.5 s
- Rotarod D1 AVG, group mean (mice; 5.0mg/kg): 27.2 s
- Rotarod D3 AVG, group mean (mice; 5.0mg/kg): 90.7 s
- Rotarod trial 1 (mice; 5.0mg/kg): 54 s and 21 s and 19 s and 2 s and 14 s and 5 s and 29 s and 3 s and 1 s
- Rotarod trial 2 (mice; 5.0mg/kg): 96 s and 41 s and 147 s and 28 s and 9 s and 38 s and 8 s and 10 s and 16 s and 1 s
- Rotarod trial 3 (mice; 5.0mg/kg): 47 s and 74 s and 152 s and 42 s and 51 s and 45 s and 18 s and 6 s and 5 s and 3 s
- Rotarod trial 4 (mice; 5.0mg/kg): 46 s and 47 s and 178 s and 87 s and 35 s and 44 s and 66 s and 4 s and 32 s and 5 s
- Rotarod trial 5 (mice; 5.0mg/kg): 80 s and 109 s and 179 s and 107 s and 92 s and 172 s and 35 s and 61 s and 62 s and 2 s
- Rotarod trial 6 (mice; 5.0mg/kg): 110 s and 99 s and 139 s and 103 s and 133 s and 151 s and 84 s and 20 s and 69 s and 7 s
- Rotarod D1 AVG (mice; 5.0mg/kg): 75 s and 31 s and 83 s and 15 s and 11.5 s and 20 s and 6.5 s and 19.5 s and 9.5 s and 1 s
- Rotarod D2 AVG (mice; 5.0mg/kg): 46.5 s and 60.5 s and 165 s and 64.5 s and 43 s and 44.5 s and 42 s and 5 s and 18.5 s and 4 s
- Rotarod D3 AVG (mice; 5.0mg/kg): 95 s and 104 s and 159 s and 105 s and 112.5 s and 161.5 s and 59.5 s and 40.5 s and 65.5 s and 4.5 s
- Rotarod Total AVG (mice; 5.0mg/kg): 72.1667 s and 65.1667 s and 135.667 s and 61.5 s and 55.6667 s and 75.3333 s and 36 s and 21.6667 s and 31.1667 s and 3.167 s
